{
  "source": "patent US12156865B2",
  "about": "“Formulation for soft anticholinergic analogs” (Bodor Laboratories, Inc., priority 2016, dated 2024)",
  "key": {"[1]": {"assay": "Stability of approximately 2% BBI-4000 formulations in four solvent systems (HPLC)", "type": "physicochemical", "settings": "for Change from Baseline (40° C./75%), reduction: after 7 days at 40° C./75% humidity", "method": "Various formulations of approximately 2% BBI-4000 were made and their stabilities assessed. The solvent systems were as follows:\n(a) solvent content: 100% water;\n(b) solvent content: 60% water/40% ethanol;\n(c) solvent content: 30% water/70% ethanol;\n(d) solvent content: 100% ethanol.\nEach sample was assessed at baseline; after 7 days at 25° C./60% humidity; and after 7 days at 40° C./75% humidity. The percentage change from baseline for 40° C. after 7 days was calculated in each case. HPLC analysis was conducted as described in EXAMPLE 2 below."}, "[2]": {"assay": "Toxicokinetics (PK analysis) in Gottingen Minipigs", "type": "in vivo", "quoted_text": "(§2) All groups received 2 mL of gel formulation, once a day, for 14 consecutive days, applied to approximately 10% of their body surface area on their backs.\nBlood samples for chemistry and hematology analysis were collected as well as PK samples.\n(§3) The estimated BBI-4000 dose applied to the skin in this study was 40 mg/kg/day for Group 3 and 20 mg/kg/day for Group 2."}, "[3]": {"tested_on": "sweat production in subjects with axillary hyperhidrosis", "assay": "Study BBI-4000-CL-101: gravimetrically measured sweat production", "type": "in vivo, human", "method": "(§1) Efficacy was assessed by the change in gravimetrically measured sweat production and the change in hyperhidrosis disease severity scale (HDSS) from baseline to Day 15 (end of therapy).\nFor the gravimetric assessment, sweat production was measured by placing filter paper (pre-weighed) on the axilla for 5 minutes while the subject was in a semi-reclining position at room temperature. The filter paper was covered with plastic during exposure to the axilla, and was then weighed following the 5-minute exposure period to calculate the amount of sweat produced."}, "[4]": {"tested_on": "subjects with axillary hyperhidrosis", "assay": "Study BBI-4000-CL-101: hyperhidrosis disease severity scale (HDSS)", "type": "in vivo, human", "method": "as §1\nFor the HDSS, subjects rated the severity of their hyperhidrosis on a 4-point scale (1, 2, 3, or 4) based on the level of interference with their daily activities."}, "[5]": {"tested_on": "Gottingen Minipigs", "assay": "14-day dermal and systemic toxicity study in Gottingen Minipigs", "settings": "anhydrous composition, 14 days", "quoted_text": "as §2\nThe study included daily observations of the site of application and scoring of erythema and edema (if present), daily general examinations including heart rate as well as pupil size assessment at days 1, 2, 3, 5, 7, 10 and 14. The frequent observations of heart rate and pupil size were intended to identify any potential systemic anticholinergic effect. Main organs were evaluated during necropsy and histopathology evaluation was completed for treated and untreated skin. Blood samples for chemistry and hematology analysis were collected as well as PK samples.\nas §3"}, "[6]": {"assay": "Hydrolysis and stability testing of aqueous BBI-4000 formulations (HPLC)", "settings": "aqueous formulations of Table II", "quoted_text": "An HPLC method was developed at a commercial laboratory for assaying the soft anticholinergic analog, and related substances (including hydrolysis products):\n• High performance liquid chromatography (HPLC) system Chromatography data system • XBridge Shield RP18, 4.6×150 mm, 3.5 μm HPLC column • Analytical balance capable of weighing to 0.00001 g • Ultrasonic bath • Volumetric flasks, 1, 5 mL • Syringe Filter: 25 mm, 0.45 μm, HPF Millex-HV, Millipore or suitable alternative\n• BBI-4000 standard • Water, HPLC grade • Acetonitrile (can), Optima grade • Trifluroacetic acid (TFA), Fisher • Mobile Phase “A”: 0.1% TFA in Water • Mobile Phase “B”: 0.1% TFA in Acetonitrile • Auto Sampler Flush: 1:1 Water:Acetonitrile • Diluent: Acetonitrile\nThe standards were prepared in duplicate by weighing 2.0±0.1 mg of BBI-4000 into 1 mL volumetric flasks. Dissolved and diluted to volume with acetonitrile and mixed by inversion.\nThe liquid chromatographic system was set-up as follows: • HPLC Column: XBridge Shield RP18, 4.6×150 mm, 3.5 μm • Column Temp.: 25±1° C. • Sample Temp.: ambiant • Flow Rate: 1.5 mL/min • Injection Volume: 10 μL • UV Detection: 220 nm • Run Time: 20 minutes\nThe HPLC assay was conducted on formulations at differing pH values, and the results were reviewed for “Time-Zero” and at 7 days at 40° C.:"}, "[7]": {"settings": "Solvent Content: 30% water, 70% Ethanol, Baseline"}, "[8]": {"settings": "Solvent Content: 30% water, 70% Ethanol, Day 7 @ 25° C./60%"}, "[9]": {"settings": "Solvent Content: 30% water, 70% Ethanol, Day 7 @ 40° C./75%"}, "[10]": {"settings": "Solvent Content: 60% water, 40% Ethanol, Baseline"}, "[11]": {"settings": "Solvent Content: 60% water, 40% Ethanol, Day 7 @ 25° C./60%"}, "[12]": {"settings": "Solvent Content: 60% water, 40% Ethanol, Day 7 @ 40° C./75%"}, "[13]": {"settings": "Solvent Content: 100% Ethanol, Baseline"}, "[14]": {"settings": "Solvent Content: 100% Ethanol, Day 7 @ 25° C./60%"}, "[15]": {"settings": "Solvent Content: 100% Ethanol, Day 7 @ 40° C./75%"}, "[16]": {"settings": "Solvent Content: 100% Water, Baseline"}, "[17]": {"settings": "Solvent Content: 100% Water, Day 7 @ 25° C./60%"}, "[18]": {"settings": "Solvent Content: 100% Water, Day 7 @ 40° C./75%"}},
  "data": [
    {"compound": "CCOC(=O)C[N@+]1(C)CCC(OC(=O)[C@](O)(c2ccccc2)C2CCCC2)C1.[Br-]", "note": "(stereo partly drawn) [BBI-4000, (2R,3′R) 3-(2-cyclopentyl-2-phenyl-2-hydroxyacetoxy)-1-(ethoxycarbonylmethyl)-1-methylpyrrolidinium bromide]", "values": [
      {"measurement": "BBI-4000 Assay", "setting": "[1]; [7]", "value": 1.99, "unit": "%"},
      {"measurement": "BBI-4000 Main Hydrolysis Products (RRT-0.79-0.84)", "setting": "[1]; [7]", "value": 0, "unit": "%"},
      {"measurement": "BBI-4000 Assay", "setting": "[1]; [8]", "value": 1.95, "unit": "%"},
      {"measurement": "BBI-4000 Main Hydrolysis Products (RRT-0.79-0.84)", "setting": "[1]; [8]", "value": 0.84, "unit": "%"},
      {"measurement": "BBI-4000 Assay", "setting": "[1]; [9]", "value": 1.89, "unit": "%"},
      {"measurement": "BBI-4000 Main Hydrolysis Products (RRT-0.79-0.84)", "setting": "[1]; [9]", "value": 3.50, "unit": "%"},
      {"measurement": "Change from Baseline (40° C./75%), reduction", "setting": "[1]; Solvent Content: 30% water, 70% Ethanol", "value": 5, "unit": "%"},
      {"measurement": "BBI-4000 Assay", "setting": "[1]; [10]", "value": 1.99, "unit": "%"},
      {"measurement": "BBI-4000 Main Hydrolysis Products (RRT-0.79-0.84)", "setting": "[1]; [10]", "value": 0, "unit": "%"},
      {"measurement": "BBI-4000 Assay", "setting": "[1]; [11]", "value": 1.94, "unit": "%"},
      {"measurement": "BBI-4000 Main Hydrolysis Products (RRT-0.79-0.84)", "setting": "[1]; [11]", "value": 0.83, "unit": "%"},
      {"measurement": "BBI-4000 Assay", "setting": "[1]; [12]", "value": 1.89, "unit": "%"},
      {"measurement": "BBI-4000 Main Hydrolysis Products (RRT-0.79-0.84)", "setting": "[1]; [12]", "value": 3.40, "unit": "%"},
      {"measurement": "Change from Baseline (40° C./75%), reduction", "setting": "[1]; Solvent Content: 60% water, 40% Ethanol", "value": 5, "unit": "%"},
      {"measurement": "BBI-4000 Assay", "setting": "[1]; [13]", "value": 2.02, "unit": "%"},
      {"measurement": "BBI-4000 Main Hydrolysis Products (RRT-0.79-0.84)", "setting": "[1]; [13]", "value": 0, "unit": "%"},
      {"measurement": "BBI-4000 Assay", "setting": "[1]; [14]", "value": 2, "unit": "%"},
      {"measurement": "BBI-4000 Main Hydrolysis Products (RRT-0.79-0.84)", "setting": "[1]; [14]", "value": 0, "unit": "%"},
      {"measurement": "BBI-4000 Assay", "setting": "[1]; [15]", "value": 2.01, "unit": "%"},
      {"measurement": "BBI-4000 Main Hydrolysis Products (RRT-0.79-0.84)", "setting": "[1]; [15]", "value": 0, "unit": "%"},
      {"measurement": "Change from Baseline (40° C./75%), reduction", "setting": "[1]; Solvent Content: 100% Ethanol", "value": "<1", "unit": "%"},
      {"measurement": "BBI-4000 Assay", "setting": "[1]; [16]", "value": 1.99, "unit": "%"},
      {"measurement": "BBI-4000 Main Hydrolysis Products (RRT-0.79-0.84)", "setting": "[1]; [16]", "value": 0, "unit": "%"},
      {"measurement": "BBI-4000 Assay", "setting": "[1]; [17]", "value": 1.91, "unit": "%"},
      {"measurement": "BBI-4000 Main Hydrolysis Products (RRT-0.79-0.84)", "setting": "[1]; [17]", "value": 1.90, "unit": "%"},
      {"measurement": "BBI-4000 Assay", "setting": "[1]; [18]", "value": 1.80, "unit": "%"},
      {"measurement": "BBI-4000 Main Hydrolysis Products (RRT-0.79-0.84)", "setting": "[1]; [18]", "value": 7.42, "unit": "%"},
      {"measurement": "Change from Baseline (40° C./75%), reduction", "setting": "[1]; Solvent Content: 100% Water", "value": 9.5, "unit": "%"},
      {"measurement": "Systemic exposure of BBI-4000 (PK analysis)", "setting": "[2]; 10% and 20% gel (20 and 40 mg/kg/day), topical, 14 days", "value": "variable, dose related systemic exposure"},
      {"measurement": "Time at which the highest concentration was observed", "setting": "[2]; after Day-14 dosing, minipig receiving 20% BBI-4000 concentration", "value": 2, "unit": "h"},
      {"measurement": "Reduction in gravimetrically measured sweat production compared to vehicle", "setting": "[3]; Cohort 2, baseline to Day 15", "value": "greater reduction"},
      {"measurement": "Proportion of subjects with at least a 50% reduction in sweat production", "setting": "[3]; Day 15, aggregate of 5% and 10% gel (9 of 12)", "value": 75, "unit": "%"},
      {"measurement": "Improvement in HDSS assessments compared to vehicle", "setting": "[4]; Cohort 2, baseline to Day 15", "value": "greater improvement"},
      {"measurement": "Proportion of subjects reporting a 2-point improvement in HDSS", "setting": "[4]; Day 15, aggregate of 5% and 10% gel (8 of 12)", "value": 67, "unit": "%"},
      {"measurement": "Histopathology analysis of treated skin", "setting": "[5]", "value": "unremarkable and identical to non-treated and vehicle treated skin"},
      {"measurement": "BBI-4000 content (assay number)", "setting": "[6]; differing pH, Day 7 at 40° C. vs Time-Zero", "value": "decreased"},
      {"measurement": "Hydrolytic degradation products (two zwitterion stereoisomers, RRT 0.84 and RRT 0.80)", "setting": "[6]; Day 7 at 40° C.", "value": "noticeably increased"}
    ]}
  ]
}
